# Experiments:
# [1] = tested on: S180 ascites tumor of mice; test: Inhibition of S180 tumor growth in mice; conditions: 60 mg/Kg i.p., 10 days
# Protocol: NIH mice used for the tests were about 18-22 grams and divided into 10 mice per group. The liquid (0.2 ml) of S180 ascites tumor of mice was inoculated subcutaneously into the armpit region of mice. The next day after the inoculation, each group of mice were injected intraperitoneally: (1) physiological saline group; (2) solvent control group (DMSO); (3) positive control group [cyclophosphamide 60 mg/(kg·d)]; (4) low-dose group 1: icariside I 2 mg/(kg·d); (5) low-dose group 2: icariside I 5 mg/(kg·d); (6) middle-dose group: icariside I 10 mg/(kg·d); (7) high-dose group: icariside I 20 mg/(kg·d). After administration for 10 continuous days, the administration was stopped and on the next day, the mice were weighed and sacrificed with tumor mass stripped and weighed. The physiological saline group and solvent group were used as a control for calculation of tumor inhibition rate.
# [2] = tested on: human peripheral blood mixed lymphocytes; test: IFN-γ production in mixed lymphocyte culture (MLC) reaction; assay type: cell-based; conditions: final concentration 1000 ng/ml, 120 h
# Protocol: Effect of icariside I on promotion of γ-interferon (interferon-gamma, IFN-γ) production by human peripheral blood mixed lymphocytes during culture (an experimental model mimicking enhancing immunity in human body).
# (1) Preparation of human peripheral blood mononuclear cells (PBMCs): following the method in Example 5 (2), peripheral blood PBMCs from two normal human were prepared.
# Cell concentrations of freshly isolated peripheral blood mononuclear cells (PBMCs) were adjusted to […] with RPMI1640 complete medium. Then, lymphocytes from two healthy human with equal volumes were mixed to maintain a total cell concentration of […]. Different concentrations (in a gradient) of or no icariside I were added thereto (with final concentration of 100 ng/ml, 1000 ng/ml) followed by fully mixing. Then the cells after stimulation were seeded and cultured in a 96-well round-bottom culture plate. The cell concentration per well was maintained at 2×10^5/ml (200 μl/well) and was incubated at 37° C. with 5% CO2 for 120 h in an incubator. The levels of cytokine IFN-γ were detected.
# According to the method stated in Example 5 (4), the γ-interferon generated from human peripheral blood mixed lymphocyte culture (MLC) was detected.
# Equal cell concentrations of lymphocytes from healthy human were mixed cultured for five days (120 h). The pharmaceutical icariside I was added (in a gradient of different pharmaceutical concentrations) or not added. […] Among them, the human lymphocyte A control is a group of samples containing only one kind of human lymphocyte, while human lymphocyte B control is a group of samples containing two kinds of human lymphocytes, that is, a control group in which two kinds of human lymphocytes were mixed for culture without adding icariside I. The concentrations of icariside I added were 0.1 and 1 μg/ml respectively. *P<0.05; **P<0.01. […]
# Cell concentrations of freshly isolated peripheral blood mononuclear cells (PBMCs) were adjusted to 5×10^5/ml with RPMI1640 complete medium. […] The level of cytokine IFN-γ produced was then detected.
# [3] = tested on: human peripheral blood mononuclear cells (PBMCs); test: Immunological screening model: IFN-γ produced in human PBMCs; assay type: cell-based
# Excerpt: The present inventors have long been researching the active components in traditional Chinese herbal medicine and their applications in immunotherapy. The present inventors have established an immunological test model based on determination of the level of IFN-γ produced in human peripheral blood mononuclear cells (PBMCs). By this model, compounds having promotion (or inhibition) effects on human peripheral blood mononuclear cells (PBMCs) to produce γ-interferon can be screened out from chemical components from various sources including traditional Chinese herbal medicine, medicinal plants and so on. Since the γ-Interferon is an important protein (cytokine) in human body's immune system to resist attacks from diseases, its production level in body directly relates to the body's immunity. Therefore, the model is an ideal tool to screen and find functional pharmaceuticals for improving human immunity.
# In addition, all the results and achievements of the present invention are based on the very effective screening model established by the present inventors. Therefore, a further objective of the present invention is to provide an experimental model for screening substances having impacts (either enhance or inhibit) on immunity. […] Finally, by using ELISA techniques, the levels of IFN-γ produced in the culture were measured at different incubation time. […]
smiles,measurement,setting,value
"O=P1(N(CCCl)CCCl)NCCCO1 (stereo not drawn) [cyclophosphamide, reference compound]",change of body weight (g),[1],+4.5 g
same,tumor inhibition rate (%) with physiological saline group as control,[1],42.3%
same,tumor inhibition rate (%) with solvent group as control,[1],55.2%
same,"weight of tumor (x ± SD, g)",[1],0.6 ± 0.06 g
"COc1ccc(-c2oc3c(CC=C(C)C)c(O[C@@H]4O[C@H](CO)[C@@H](O)[C@H](O)[C@H]4O)cc(O)c3c(=O)c2O[C@@H]2O[C@@H](C)[C@H](O)[C@@H](O)[C@H]2O)cc1 [icariin, reference compound]",ability to promote human γ-interferon production in mixed lymphocyte culture,[2],almost no effect
CC(C)=CCc1c(OC2OC(CO)C(O)C(O)C2O)cc(O)c2c(=O)c(O)c(-c3ccc(O)cc3)oc12 (stereo not drawn) [icariside C],effect in promoting PBMCs to generate IFN-γ,[3],significant effect
